Laboratory results from patent US20190010535A1, “METHODS AND COMPOSITIONS FOR THE DIAGNOSIS AND FOR THE TREATMENT OF ADRENOLEUKODYSTROPHY” (FUNDACIÓ INSTITUT D'INVESTIGACIÓ BIOMÈDICA DE BELLVITGE …, priority 2015, published 2019).

Key:
Format in all cases: in vivo
Abcd1−/Abcd2−/− mice [1] = experiment: Treadmill test; conditions: four months of treatment starting at 12 months of age, belt speed 30 cm/sec, slope 20°
Protocol: (§1) Treadmill apparatus consisted of a variable speed belt varying in terms of speed and slope. An electrified grid was located to the rear of the belt on which footshocks (0.2 mA) were administered whenever the mice fell off the belt. The treadmill apparatus (Panlab, Barcelona, Spain) consisted of a belt (50 cm long and 20 cm wide) varying in terms of speed (5 to 150 cm/s) and slope (0-25°) enclosed in a plexiglass chamber. The latency to falling off the belt (time of shocks in seconds) and the number of received shocks were measured. The mice were placed on the top of the already moving belt facing away from the electrified grid and in the direction opposite to the movement of the belt. Thus, to avoid the footshocks, the mice had to locomote forward.
(§2) The mice were evaluated in five trials in a single-day session. In the first trial, the belt speed was set at 20 cm/s and the inclination at 50. […] When the mice were subjected to consecutive trials at increasing speeds up to 20 cm/sec and a 20° slope, no differences were detected from one session to another between the WT and Abcd1^−/Abcd2^−/− mice. However, when the belt speed was increased up to 30 cm/sec and the slope was 20°, differences were detected between the Abcd1^−/Abcd2^−/− mice and the controls because this task requires greater coordination. […]

Abcd1−/Abcd2−/− mice [2] = experiment: Horizontal bar cross test; conditions: four months of treatment starting at 12 months of age
Protocol: The bar cross test was carried out using a wooden bar of 100 cm in length and 2 cm in width (diameter). This bar is just wide enough for mice to stand on with their hind feet hanging over the edge such that any slight lateral misstep will result in a slip. […] The mice were put on one end of the bar and expected to cross to the other end. To eliminate the novelty of the task as a source of slips, all animals were given four trials on the bar the day before and at the beginning of the testing session. In an experimental session, the number of hind limb lateral slips and falls from the bar was counted on four consecutive trials. If an animal fell, it was placed back on the bar at the point at which it fell and was allowed to complete the task. The bar was cleaned with ethanol after each animal.

Abcd1−/Abcd2−/− mice [3] = experiment: Locomotor testing overall (treadmill and bar cross), disease progression in X-ALD mice; conditions: four months of treatment
Protocol: as §1, with “Thus, to avoid the footshocks, the mice had to locomote forward.” left out
as §2, with “session.” for “session. In the first trial, the belt speed was set at 20 cm/s and the inclination at 50.”
The bar cross test was carried out using a wooden bar of 100 cm in length and 2 cm in width (diameter). […] In an experimental session, the number of hind limb lateral slips and falls from the bar was counted on four consecutive trials. […]

SMILES | ratio between the time of shocks and the number of shocks (locomotor deficit index) (Abcd1−/Abcd2−/− mice [1]) | number of slips (Abcd1−/Abcd2−/− mice [2]) | time necessary to cross the bar (Abcd1−/Abcd2−/− mice [2]) | progression of the disease in X-ALD mice (Abcd1−/Abcd2−/− mice [3])
CCCCCCCCc1ccc(CCC(N)(CO)CO)cc1 [Fingolimod] | indistinguishable from the WT ratio | normalized | normalized | arrested the progression of the disease
CCc1cc(/C(C)=N/OCc2ccc(C3CCCCC3)c(C(F)(F)F)c2)ccc1CN1CC(C(=O)O)C1 [Siponimod] | indistinguishable from the WT ratio | normalized | normalized | arrested the progression of the disease
